According to patent US20250082625A1, “NOVEL THERAPY” (priority 2016, published 2025):
Where no end group is shown, it is not given here.

Experiments:
HTB-9 cells [1] = assay: Treatment of HTB-9 bladder epithelial cells with exogenous recombinant SP or IL-1β; format: cell-based, human; settings: four hours
Experimental: (§1) HTB-9 cells and differentiated SH-SY5Y cells were pre-treated with SR140333, or IL-1RA Anakinra (500 ng/ml) for 30 minutes before infection with CY17 (10^4 cfu/ml, four hours), or treatment with exogenous recombinant SP (R&D System) or IL-1β (Abnova) (20 ng/ml, four hours). After infection, cells were infected with CY17 and the NK1R, SP and IL-1β response was quantified by confocal imaging. IL-1β- and SP secretion was quantified by ELISA, in culture supernatants. In nerve- and bladder epithelial cells, SR140333 inhibited the SP/NK1R response to infection, consistent with an autocrine activation loop involving SP/NK1R as shown by confocal imaging (FIG. 10a). […] SP activated IL-1β expression and secretion in bladder epithelial cells but had no effect on IL-1β on nerve cells. (*=P<0.05, **=P<0.01, ***=P<0.001, Two-tailed t-test for confocal imaging data and Mann-Whitney U-test for ELISAs.

[2] = test system: differentiated SH-SY5Y cells; assay: Treatment of differentiated SH-SY5Y nerve cells with exogenous recombinant SP or IL-1β; format: cell-based, human; settings: four hours
Experimental: as §1

HTB-9 cells [3] = assay: Pre-treatment of HTB-9 bladder epithelial cells before CY17 infection (confocal imaging, ELISA); format: cell-based, human; settings: for IL-1β secretion (ELISA, culture supernatants) / SP secretion (ELISA, culture supernatants): pre-treated before CY17 infection
Experimental: (§2) Cells were grown on 8-well chamber slides (6×10^4 cells/well, Thermo Fischer Scientific) or in 6-well plates (6×10^5 cells/well) for 16 hours in media supplemented with 10% FBS. Media were removed, and cells were washed with PBS before adding medium without FBS. Cells were infected with bacteria diluted to appropriate concentration in PBS and incubated for one or four hours at 37° C. with 5% CO2.
(§3) The two cell types were first infected with increasing concentrations of the acute cystitis strain E. coli CY-17 (10^2-10^4 cfu/ml) for 1 to 4 hours. NK1R and SP expression was used as a read out of the cellular response. […] A concentration of 10^4 cfu/ml of CY-17 and four hours of infection was chosen for further studies. Under these conditions, there was little cytotoxicity. To further characterize the neuropeptide response to bladder infection, the in vitro analysis was extended to include GALR2, OrxR2 and TAS2R43. Confocal microscopy was used in this instance. Infected cells were fixed (3.7% formaldehyde, 15 min), permeabilized (0.25% triton X-100, 5% FBS, 10 min), blocked (5% FBS, 1 h at RT), incubated overnight with primary antibodies in 5% FBS: Anti-NK1R (1:100, SC-15323, Santa Cruz), anti-SP, (1:200, ORB11399, Biorbyt), anti-orexin receptor 2, (1:200, AB10470, Abcam), anti-TAS2R43, (1:200, AB65513, Abcam), and anti-GALR2 antibodies (1:100, AB136264, Abcam). Appropriate fluorescently labeled secondary antibodies were used (Alexa Fluor® 488 goat anti-rabbit IgG, A-11034; Life Technologies, (1 hour at Room Temperature). After nuclear staining (DRAQ5, 1:1000, Abcam) slides were mounted (Fluoromount, Sigma-Aldrich), imaged by laser scanning confocal microscopy (MSM510 META confocal microscope, Carl Zeiss) and quantified by ImageJ software 1.46r (NIH).
as §1
Furthermore, to examine if the effects of NK1R inhibition can be generalized, we used two additional NK1R antagonists (CP99994 and L703.303). HTB-9 cells and differentiated SH-SY5Y cells were pre-treated with SR140333, CP99994, L-703.606 or IL-1RA Anakinra (500 ng/ml) for 30 minutes before infection with CY17 (10^4 cfu/ml, four hours), or treatment with exogenous recombinant SP (R&D System) or IL-1β (Abnova) (20 ng/ml, four hours).

Asc^−/− mice [4] = assay: Anakinra treatment of infected Asc^−/− mice (bladder NK1R/SP staining, disease severity); format: in vivo
Experimental: FIG. 8a The mice were pre-treated with interleukin 1 receptor antagonist (IL1-RA) Anakinra, 30 min before infection and daily after infection with E. coli CFT073 (1 mg in 100 μl of PBS i.p. per mouse). FIG. 8b Reduction in NK1R in Anakinra® treated compared to untreated control mice. Bladder tissue sections from infected Asc^−/− mice treated with Anakinra® were stained for NK1R. […] FIG. 8c Reduction in SP staining in Anakinra® treated Asc^−/− mice compared to untreated mice. […] Sections were obtained from 3 mice per group; one of two experiments is shown. *=p<0.05, **=p<0.01, two tailed t-test). FIG. 8d The disease severity score was reduced by the Anakinra (n=3-4, ***P<0.001, compared to untreated Asc^−/− mice, Fisher's exact test, Reference for (d):.
To confirm the importance of Il1b for the neuropeptide response, susceptible Asc^−/− mice were treated with the IL-1 receptor (IL-1R) antagonist Anakinra® (FIG. 8a). This therapeutic approach was recently shown to be effective against acute cystitis, as Anakinra® attenuated the hyper-inflammatory response to infection and prevented bladder pathology in susceptible mice.
These findings were confirmed in vitro by pretreating nerve cells and bladder epithelial cells with Anakinra (500 ng/ml) followed by CY-17 infection (10^4 CFU/ml, 4 hours).

[5] = test system: differentiated SH-SY5Y cells; assay: Pre-treatment of differentiated SH-SY5Y nerve cells before CY17 infection (confocal imaging, ELISA); format: cell-based, human
Experimental: as §2, §3, §1
Furthermore, to examine if the effects of NK1R inhibition can be generalized, we used two additional NK1R antagonists (CP99994 and L703.303). […]

Asc^−/− mice [6] = settings: cited from earlier work
[7] = exogenous recombinant SP 20 ng/ml
[8] = infected Asc^−/− mice, 1 mg in 100 μl PBS i.p. 30 min before and daily after infection, vs infected controls without therapy
[9] = susceptible mice, recently shown

With “SP: exogenous recombinant SP (R&D System), ligand of NK1R (RPKPQQFFGLM-NH2; ends and bridges not checked; UniProt P20366 58-68, looked up)” the “IL-1β expression and secretion” value (HTB-9 cells [1]; [7]) was “activated” and the IL-1β [2, 7] was “no effect”.

In the case of `COc1ccccc1CN[C@H]1CCCN[C@H]1c1ccccc1` [CP99994, (2S,3S)-N-[(2-Methoxyphenyl)methyl]-2-phenyl-3-piperidinamine], the “IL-1β secretion (ELISA, culture supernatants)” value (“IL-1β secretion” below) (HTB-9 cells [3]) is reported as “decreased” and the “SP secretion (ELISA, culture supernatants)” value (HTB-9 cells [3]) is reported as “decreased”.

In the case of “Anakinra: interleukin 1 receptor antagonist (IL1-RA) Anakinra”, the “NK1R response (mucosal NK1R staining, bladder sections)” value (Asc^−/− mice [4]; [8]) is reported as “marked reduction”, the “SP response (mucosal SP staining, bladder sections)” value (Asc^−/− mice [4]; [8]) is reported as “marked reduction” and the “baseline NK1R staining” value (Asc^−/− mice [4]; uninfected mice) is reported as “reduced”. For the same compound, the “baseline SP staining” value (Asc^−/− mice [4]; uninfected mice) was “reduced”, the NK1R staining ([5]; Anakinra 500 ng/ml pretreatment, CY-17 infection (10^4 CFU/ml, 4 hours)) was “marked reduction” and the “SP/NK1R response to infection (confocal imaging)” value ([5]; pre-treated 30 minutes before CY17 (10^4 cfu/ml, four hours)) was “no effect”. For the same compound, the “IL-1β secretion” value (HTB-9 cells [3]) was “inhibited”, the “NK1R expression / staining” value (HTB-9 cells [3]; pretreatment prior to CY17 infection (10^4 CFU/ml, 4 hours)) was “marked reduction” and the disease severity score (Asc^−/− mice [6]; compared to untreated Asc^−/− mice, n=3-4, P<0.001) was “reduced”. For the same compound, the bladder pathology (Asc^−/− mice [6]; [9]) was “prevented” and the “hyper-inflammatory response to infection” value (Asc^−/− mice [6]; [9]) was “attenuated”.

In the case of `Ic1ccccc1CN[C@@H]1C2CCN(CC2)[C@@H]1C(c1ccccc1)c1ccccc1` [L703.606, (2R,3R)-2-benzhydryl-N-[(2-iodanylphenyl)methyl]-1-azabicyclo[2.2.2]octan-3-amine], the “IL-1β secretion” value (HTB-9 cells [3]) is reported as “decreased” and the “SP secretion (ELISA, culture supernatants)” value (HTB-9 cells [3]) is reported as “decreased”.

In the case of “IL-1β: exogenous recombinant IL-1β (Abnova)”, the SP/NK1R expression (HTB-9 cells [1]; exogenous IL-1β 20 ng/ml) is reported as “increased” and the SP/NK1R expression ([2]; exogenous IL-1β 20 ng/ml) is reported as “increased”.
